Reference: patent US20070036793A1, “Methods for use of an lkb1/strad7mo25 complex” (priority 2003, published 2007)

Tests used:
AMPKα1 = target: T1, AMPKα1 (Mus musculus, UniProt Q5EG47); assay: AMPK activity and Thr172 phosphorylation in LKB1+/+ MEFs after drug stimulation; format: cell-based; settings: 1 h
T1 construct: AMPKα1 and AMPK-related kinases were immunoprecipitated from the cell lysates; endogenous in cells; host or cells: immortalised LKB1+/+ MEFs
Description: (§1) FIG. 27 Activity of AMPK-related kinases in LKB1+/+ and LKB1^−/− MEFs. LKB1^+/+ or LKB1^−/− MEFs were either left untreated (black bars) or stimulated with 10 mM phenformin (Phen, white bars) for 1 h. AMPKα1 and AMPK-related kinases were immunoprecipitated from the cell lysates, and in vitro kinase activity towards the AMARA peptide was measured as described in Materials and Methods (Example 4). To confirm equal expression of the kinases in each sample, cell lysates (AMPKα1, NUAK2, MARK2/3 and MARK4) or immunoprecipitated proteins (QIK, QSK, SIK and MARK1) were subjected to SDS-PAGE and western blot analysis. All AMPK-related kinases migrated with the expected molecular mass. In the case of AMPKα1, cell lysates were immunoblotted with a phospho Thr172 antibody (P-AMPK), that recognises the phosphorylated T-loop. A control immunoblot of LKB1 levels in cell lysates is also included in panel B. Results shown are average + SD of 2-4 assays and are representative of at least two independent experiments.
FIG. 28. […] (A) LKB1^+/+ MEFs were either left untreated or stimulated with the indicated concentrations of phenformin (Phen) for 1 h. AMPKα1/a2 and LKB1 were immunoprecipitated from the cell lysates, and in vitro kinase activity towards the AMARA and LKBtide peptides respectively, were measured as described in Materials and Methods (Example 4). (B) To confirm equal expression of the kinases in each sample, cell lysates were subjected to SDS-PAGE and western blot analysis with the indicated antibodies. The phospho pT172 antibody (P-AMPK) recognises the phosphorylated T-loop of AMPKα1. Results are shown as the average ± SD for a triplicate assay and are representative of two independent experiments. […] AMPKα1 and the indicated AMPK-related kinases were immunoprecipitated from the cell lysates, and in vitro kinase activity towards the AMARA peptide measured as described in Materials and Methods. […]
(§2) Cell culture, stimulation and cell lysis. […] Protein concentrations were determined by the Bradford method with bovine serum albumin as the standard (Bradford, 1976). […]

[1] = tested on: AMPK-related kinases (NUAK2, QIK, QSK, SIK, MARK1, MARK2/3, MARK4); assay: Activity of endogenous AMPK-related kinases immunoprecipitated from MEFs after drug stimulation; format: cell-based, mouse; settings: 1 h
Description: as §1, with “A control immunoblot of LKB1 levels in cell lysates is also included in panel B. Results shown are average + SD of 2-4 assays and are representative of at least two independent experiments.” left out
FIG. 28. […] AMPKα1/a2 and LKB1 were immunoprecipitated from the cell lysates, and in vitro kinase activity towards the AMARA and LKBtide peptides respectively, were measured as described in Materials and Methods (Example 4). […] AMPKα1 and the indicated AMPK-related kinases were immunoprecipitated from the cell lysates, and in vitro kinase activity towards the AMARA peptide measured as described in Materials and Methods. […]
as §2

T1 sequence (Q5EG47 whole entry): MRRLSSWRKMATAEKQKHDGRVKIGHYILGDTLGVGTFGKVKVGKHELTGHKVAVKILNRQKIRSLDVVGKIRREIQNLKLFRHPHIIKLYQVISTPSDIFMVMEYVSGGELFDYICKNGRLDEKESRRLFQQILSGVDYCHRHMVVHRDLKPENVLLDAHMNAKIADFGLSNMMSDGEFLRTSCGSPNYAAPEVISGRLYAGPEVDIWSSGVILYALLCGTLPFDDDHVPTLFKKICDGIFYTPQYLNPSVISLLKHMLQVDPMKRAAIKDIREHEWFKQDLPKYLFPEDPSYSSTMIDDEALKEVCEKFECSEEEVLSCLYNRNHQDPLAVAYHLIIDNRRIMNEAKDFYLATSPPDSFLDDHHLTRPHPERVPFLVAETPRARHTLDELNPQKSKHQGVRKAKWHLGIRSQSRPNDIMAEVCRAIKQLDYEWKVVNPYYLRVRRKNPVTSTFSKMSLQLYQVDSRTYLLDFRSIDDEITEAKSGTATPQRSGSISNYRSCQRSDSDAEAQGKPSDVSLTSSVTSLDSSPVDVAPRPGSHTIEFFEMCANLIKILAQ
T1 sequence (Q9R078 2-270 partner limits assumed): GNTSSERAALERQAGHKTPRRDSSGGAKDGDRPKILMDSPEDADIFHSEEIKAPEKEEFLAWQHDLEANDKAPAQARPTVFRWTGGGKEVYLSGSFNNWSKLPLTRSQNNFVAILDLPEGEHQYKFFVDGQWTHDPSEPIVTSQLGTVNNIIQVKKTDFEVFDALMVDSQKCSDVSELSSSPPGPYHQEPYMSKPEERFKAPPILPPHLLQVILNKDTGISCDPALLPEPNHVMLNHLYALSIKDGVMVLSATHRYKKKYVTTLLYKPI
T1 sequence (O54950 whole entry partner): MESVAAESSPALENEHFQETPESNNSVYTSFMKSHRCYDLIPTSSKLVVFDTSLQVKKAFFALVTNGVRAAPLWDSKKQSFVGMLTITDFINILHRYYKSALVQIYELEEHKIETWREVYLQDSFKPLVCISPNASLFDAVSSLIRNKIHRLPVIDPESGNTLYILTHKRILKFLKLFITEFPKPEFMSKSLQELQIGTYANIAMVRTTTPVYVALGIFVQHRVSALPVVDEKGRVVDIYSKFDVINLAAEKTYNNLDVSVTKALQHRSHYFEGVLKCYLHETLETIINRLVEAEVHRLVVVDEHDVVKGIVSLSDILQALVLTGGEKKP

Row | Compound | activation of AMPK (AMPKα1; 2 mM AICA riboside) | activity of AMPK-related kinases ([1]; LKB1+/+ MEFs, 2 mM AICA riboside) | activation of AMPK (AMPKα1; increasing doses of phenformin) | phosphorylation of Thr172 of AMPK (AMPKα1; increasing doses of phenformin) | activity of AMPK-related kinases ([1]; MEFs, 10 mM phenformin)
1 | NC(=O)c1ncn([C@@H]2O[C@H](CO)[C@@H](O)[C@H]2O)c1N [AICA riboside, 5-aminoimidazole-4-carboxamide (AICA) riboside] | activated AMPK | failed to markedly activate | – | – | –
2 | [H]/N=C(/N)N/C(=N/[H])NCCc1ccccc1 [phenformin] | – | – | progressively activated AMPK | increased the phosphorylation of Thr172 | not significantly stimulated
